Test results published in patent publication US11266654B2 (AI Therapeutics, Inc., priority 2014, dated 2022).

What was measured:
HELA = HELA (WO 2006/128129); cited from earlier work
[1] = system: 122 human cancer cell lines; experiment: Cancer cell line sensitivity screen (cell viability); format: cell-based; settings: non-Hodgkin's Lymphoma cell lines; sensitive if IC50 less than 500 nM
From the text: (§1) 35 cell lines were identified as sensitive to apilimod-induced cytotoxicity.
The most sensitive of those tested were non-Hodgkin's Lymphoma (NHL) cell lines. […] NHL represents a diverse group of hematopoietic malignancies that vary in severity, with subtypes ranging from slow growing to aggressive. Subtypes of NHL include diffuse large B cell lymphoma (DLBCL), Burkitt's lymphoma, mantle lymphoma, and follicular B cell lymphoma. DLBCL is divided into two subtypes, GCB and ABC, based on gene expression and cell of origin. The GCB are germinal center B cell type, arising from normal germinal center B cells, and the ABC are activated B cell type, arising from post-germinal center B cells in the process of differentiating into plasma cells.

[2] = system: peripheral blood mononuclear cells; settings: peripheral blood mononuclear cells (Wada et al. 2007); cited from earlier work
THP-1 = THP-1 (WO 2006/128129); cited from earlier work
SUDHL-4 cells = experiment: Screen of 93-drug library with and without apilimod (CellTiter-Glo 72 h); format: cell-based; settings: Homo sapiens, SU-DHL-4
From the text: A manually curated library of 93 drugs including both FDA approved and unapproved drugs was used in the screen.

[3] = active Crohn's disease, placebo-controlled (Sands et al. 2010); cited from earlier work
Normal lung fibroblasts = experiment: Cytotoxicity on normal cells; format: cell-based; settings: concentrations as high as 10 micromolar
From the text: as §1

IL-12/IL-23 synthesis = settings: psoriasis, oral administration, open label (Wada et al. 2012); cited from earlier work
U937 = U937 (WO 2006/128129); cited from earlier work
[4] = system: representative cancer cell line; experiment: Vacuolization of live cells; format: cell-based; settings: 500 nM, 24 h
H4 neuroglioma cell line = experiment: Cyto-ID Autophagy detection; format: cell-based, Human; settings: 72 hours of treatment
From the text: Autophagy was quantified using the Cyto-ID Autophagy detection kit (Enzo) according to manufacturer's directions.

[5] = system: diffuse large B cell lymphoma cells; experiment: Apotox-Glo Triplex assay (viability, apoptosis, necrosis); format: cell-based; settings: 48 hours
Experimental: Apoptosis was quantified and distinguished from necrosis using the Apotox-Glo Triplex assay (Promega, Inc.) according to the manufacturer's instructions. In this assay, viability, apoptosis, and necrosis are assessed simultaneously using three different markers (GF-AFC, Caspase-3/7, and bis-AAF-R110, respectively).

Jurkat = Jurkat (WO 2006/128129); cited from earlier work

Cc1cccc(/C=N/Nc2cc(N3CCOCC3)nc(OCCc3ccccn3)n2)c1 [apilimod]
cytotoxicity (HELA): not cytotoxic | percentage of NHL cell lines tested that were sensitive [1]: over 50% | cytotoxicity [2]: not cytotoxic | cytotoxicity (THP-1): not cytotoxic | IC20 (SUDHL-4 cells): 0.01 µM | clinical efficacy [3]: did not demonstrate efficacy over placebo | apilimod-induced cytotoxicity (Normal lung fibroblasts): insensitive | immunomodulatory activity in patients (IL-12/IL-23 synthesis): showed immunomodulatory activity | cytotoxicity (U937): not cytotoxic | vacuolization [4]: induces vacuolization | autophagy (autophagic vacuoles) (H4 neuroglioma cell line): induced autophagy in a dose-dependent manner | apoptosis (Caspase-3/7 marker) [5]: increased apoptosis | cytotoxicity (Jurkat): not cytotoxic
